Assay results published in US5196094A, “Separation of 1,1,1-trichloroethane from the lower alcohols by extractive distillation” (priority 1991, dated 1993).

How the values were obtained:
[1] = minimum boiling azeotrope with 1,1,1-trichloroethane; cited from earlier work
[2] = Vapor-liquid equilibrium still, separation of 1,1,1-trichloroethane from ethanol; format: physicochemical; conditions: 1,1,1-trichloroethane from ethanol
[3] = Vapor-liquid equilibrium still, separation of 1,1,1-trichloroethane from n-propanol; format: physicochemical
[4] = Vapor-liquid equilibrium still, separation of 1,1,1-trichloroethane from t-butanol; format: physicochemical
[5] = Vapor-liquid equilibrium still, separation of 1,1,1-trichloroethane from methanol; format: physicochemical; conditions: for Relative Volatility: 1,1,1-trichloroethane from methanol, vapor-liquid equilibrium still
[6] = Vapor-liquid equilibrium still, separation of 1,1,1-trichloroethane from 2-butanol; format: physicochemical
[7] = Vapor-liquid equilibrium still, separation of 1,1,1-trichloroethane from isopropanol; format: physicochemical
[8] = Run in glass perforated rectification column, t-butanol; format: physicochemical
Description: A solution comprising 250 grams of the 1,1,1-trichloroethane-t-butanol azeotrope was placed in the stillpot of the 7.3 theoretical plate rectification column. […] The temperature of the extractive agent as it entered the top of the column was 80° C. After establishing the feed rate of the extractive agent, the heat input to the 1,1,1-trichloroethane-t-butanol in the stillpot was adjusted to give a total reflux rate of 40 ml/min. After 1.5 hours operation, overhead and bottoms samples were collected and analysed. The overhead analysis was 95.7% 1,1,1-trichloroethane, 4.3% t-butanol and the bottoms analysis was 33.5% 1,1,1-trichloroethane, 66.5% t-butanol. This gives an average relative volatility of 1.68 for each theoretical plate.

[9] = Run in glass perforated plate rectification column, ethanol; format: physicochemical; conditions: 1 h
Description: (§1) A solution comprising 250 grams of the 1,1,1-trichloroethane ethanol azeotrope was placed in the stillpot of the 7.3 theoretical plate rectification column. […] The temperature of the extractive agent as it entered the top of the column was 70° C. After establishing the feed rate of the extractive agent, the heat input to the 1,1,1-trichloroethane ethanol in the stillpot was adjusted to give a total reflux rate of 40 ml/min. After 1.5 hours operation, overhead and bottoms samples were collected and analysed.

[10] = Run in glass perforated plate rectification column, isopropanol; format: physicochemical
Description: as §1, with “1,1,1-trichloroethane-isopropanol” for “1,1,1-trichloroethane ethanol”, “73°” for “70°”

[11] = Run in glass perforated plate rectification column, 2-butanol; format: physicochemical
Description: A solution comprising 250 grams of the 1,1,1-trichloroethane-2-butanol azeotrope was placed in the stillpot of the 7.3 theoretical plate rectification column. […] The temperature of the extractive agent as it entered the column was 83° C. After establishing the feed rate of the extractive agent, the heat input to the 1,1,1-trichloroethane-2-butanol in the stillpot as adjusted to give a total reflux rate of 40 ml/min. After 1.5 hours operation, overhead and bottoms samples were collcted and analysed. The overhead analysis was 99.7% 1,1,1-trichloroetahne, 0.3% 2-butanol and the bottoms analysis was 55.1% 1,1,1-trichloroethane, 44.9% 2-butanol. This gives an average relative volatility of 2.15 for each theoretical plate.

[12] = Run in glass perforated plate rectification column, n-propanol; format: physicochemical
Description: A solution comprising 250 grams of the 1,1,1-trichloroethane-n-propanol azeotrope was placed in the stillpot of the 7.3 theoretical plate rectification column. […] The temperature of the extractive agent as it entered the top of the column was 75° C. After establishing the feed rate of the extractive agent, the heat input to the 1,1,1-trichloroethane […] in the stillpot was adjusted to give a total reflux rate of 40 ml/min. After 1.5 hours operation, overhead and bottoms samples were collected and analysed. […] This gives an average relative volatility of 2.33 for each theoretical plate.

[13] = Run in glass perforated plate rectification column, methanol; format: physicochemical; conditions: 1 h
Description: A solution comprising 250 grams of the 1,1,1-trichloroethane-methanol azeotrope was placed in the stillpot of a 7.3 theoretical plate glass perforated plate rectification column. […] The temperature of the extractive agent as it entered the top of the column was 65° C. After establishing the feed rate of the extractive agent, the heat input to the 1,1,1-trichloroethane-methanol in the stillpot was adjusted to give a total reflux rate of 40 ml/min. After 1.5 hours operation, overhead and bottoms samples were collected and analysed by gas chromatography. The overhead analysis was 90.2% 1,1,1-trichloroethane, 9.8% methanol and the bottoms analysis was 0.8% 1,1,1-trichloroethane, 99.2% methanol.

[14] = 1,1,1-trichloroethane from t-butanol
[15] = 1,1,1-trichloroethane from n-propanol, vapor-liquid equilibrium still
[16] = 1,1,1-trichloroethane from 2-butanol, vapor-liquid equilibrium still
[17] = […], average for each theoretical plate
[18] = 70 g azeotrope, 30 g agent, refluxed eight hours

CCCO [n-propanol]
1,1,1-trichloroethane content of azeotrope [1]: 85%

CCC(C)O (centres unmarked) [2-Butanol]
Relative Volatility [2]: 2.0
1,1,1-trichloroethane content of azeotrope [1]: 90%
azeotrope boiling point [1]: 70.5 °C

COCCOCCO [Diethylene glycol methyl ether]
Relative Volatility [2]: 3.3
Relative Volatility [3]: 2.7
Relative Volatility [4, 14]: 2.2
Relative Volatility [5]: 3.3
Relative Volatility [6]: 3.0

O=S1(=O)CCCC1 [Sulfolane]
Relative Volatility [2]: 2.2
Relative Volatility [4, 14]: 1.4
Relative Volatility [6]: 2.7
Relative Volatility [7]: 1.4

COCC(C)O (centres unmarked) [Propylene glycol methyl ether]
Relative Volatility [2]: 2.0
Relative Volatility [3, 15]: 4.2
Relative Volatility [4, 14]: 1.7
Relative Volatility [5]: 3.1
Relative Volatility [6, 16]: 3.9
Relative Volatility ([7]; 1,1,1-trichloroethane from isopropanol, vapor-liquid equilibrium still): 2.3

COC(=O)c1ccccc1O [Methyl salicylate]
Relative Volatility [2]: 1.55
Relative Volatility [3]: 1.3
Relative Volatility ([4]; * Brings out t-Butanol as Overhead): 1.3
Relative Volatility [6]: 1.3
Relative Volatility ([7]; * Brings Isopropanol out as Overhead, vapor-liquid equilibrium still): 1.45

CC(C)(C)O [t-butanol]
1,1,1-trichloroethane content of azeotrope [1]: 80%
azeotrope boiling point [1]: 66 °C

CO [methanol]
1,1,1-trichloroethane content of azeotrope [1]: 20%
azeotrope boiling point [1]: 61 °C

C[S+](C)[O-] [Dimethylsulfoxide]
Relative Volatility ([8]; 1 h): 1.68
Relative Volatility [8, 17]: 1.68
Weight % CH3 CCl3 ([8]; bottoms, 1 h): 43.4%
Weight % t-Butanol ([8]; bottoms, 1 h): 56.6%
Weight % CH3 CCl3 ([8]; overhead, 1 h): 97.1%
Weight % t-Butanol ([8]; overhead, 1 h): 2.9%
Relative Volatility [9]: 2.1
Weight % CH3 CCl3 ([9]; bottoms): 13.6%
Weight % Ethanol ([9]; bottoms): 86.4%
Weight % CH3 CCl3 ([9]; overhead): 97.3%
Weight % Ethanol ([9]; overhead): 2.7%
Relative Volatility ([10]; 1 h): 2.5
Relative Volatility [10, 17]: 2.2
Weight % CH3 CCl3 ([10]; bottoms, 1 h): 27.8%
Weight % Isopropanol ([10]; bottoms, 1 h): 72.2%
Weight % CH3 CCl3 ([10]; overhead, 1 h): 99.6%
Weight % Isopropanol ([10]; overhead, 1 h): 0.4%
Relative Volatility [3, 15]: 2.3
Relative Volatility ([11]; 1 h): 2.1
Relative Volatility [11, 17]: 2.15
Weight % 2-Butanol ([11]; bottoms, 1 h): 46.9%
Weight % CH3 Cl3 ([11]; bottoms, 1 h): 53.1%
Weight % 2-Butanol ([11]; overhead, 1 h): 0.4%
Weight % CH3 Cl3 ([11]; overhead, 1 h): 99.6%
Relative Volatility [4, 14]: 1.7
Relative Volatility ([12]; 1 h): 2.17
Relative Volatility [12, 17]: 2.33
Weight % CH3 CCl3 ([12]; bottoms, 1 h): 40%
Weight % n-Propanol ([12]; bottoms, 1 h): 60%
Weight % CH3 CCl3 ([12]; overhead, 1 h): 99.5%
Weight % n-Propanol ([12]; overhead, 1 h): 0.5%
Relative Volatility [13]: 2.13
Weight % CH3 CCl3 ([13]; bottoms): 3.5%
Weight % Methanol ([13]; bottoms): 96.5%
Weight % CH3 CCl3 ([13]; overhead): 90.2%
Weight % Methanol ([13]; overhead): 9.8%
liquid composition, 1,1,1-trichloroethane [5, 18]: 11%
liquid composition, methanol [5, 18]: 89%
vapor composition, 1,1,1-trichloroethane [5, 18]: 24.2%
vapor composition, methanol [5, 18]: 75.8%
Relative Volatility [6]: 2.2
Relative Volatility [7]: 2.5

CCO [ethanol]
1,1,1-trichloroethane content of azeotrope [1]: 75%
azeotrope boiling point [1]: 63 °C

CC(C)O [isopropanol]
1,1,1-trichloroethane content of azeotrope [1]: 80%

CC1COC(=O)O1 (centres unmarked) [Propylene carbonate]
Relative Volatility [2]: 2.2
Relative Volatility [3, 15]: 2.0
Relative Volatility [4, 14]: 1.5
Relative Volatility [6, 16]: 2.4
